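Following 48 hours of exposure in 96-well plates, responses at five concentrations were used to interpolate endpoints linearly. GI50 is the concentration that inhibits growth by half.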 Calls of active or inactive are those of the source. Rule as the data show it: active = GI50 up to about 1.1 µM and inactive = higher.
Assays:
Assay in all cases: NCI tumour cell line growth inhibition, 48 h
LOX IMVI = test system: LOX IMVI
HT-29 = test system: HT-29
HL-60 = test system: HL-60
UO-31 = test system: UO-31
HOP-92 = test system: HOP-92
SN12C = test system: SN12C
NCI-H522 = test system: NCI-H522
T47D = test system: T47D
SK-MEL-5 = test system: SK-MEL-5
K562 = test system: K562
OVCAR-5 = test system: OVCAR-5
786-0 = test system: 786-0
M14 = test system: M14
UACC-62 = test system: UACC-62
NCI-H226 = test system: NCI-H226
U-251 = test system: U-251
SNB-75 = test system: SNB-75
PC-3 = test system: PC-3
Malme-3M = test system: Malme-3M
COLO 205 = test system: COLO 205
OVCAR-8 = test system: OVCAR-8
SR = test system: SR
MDA-MB-435 = test system: MDA-MB-435
RPMI-8226 = test system: RPMI-8226
SF-295 = test system: SF-295
MDA-N = test system: MDA-N
SF-268 = test system: SF-268
Hs-578T = test system: Hs-578T
CAKI-1 = test system: CAKI-1
ACHN = test system: ACHN
MDA-MB-231 = test system: MDA-MB-231
SNB-19 = test system: SNB-19
HCT-116 = test system: HCT-116
SK-MEL-2 = test system: SK-MEL-2
SK-OV-3 = test system: SK-OV-3
BT-549 = test system: BT-549
TK-10 = test system: TK-10
IGROV-1 = test system: IGROV-1
DU-145 = test system: DU-145
NCI-H23 = test system: NCI-H23
OVCAR-3 = test system: OVCAR-3
A498 = test system: A498
NCI/ADR-RES = test system: NCI/ADR-RES
MCF7 = test system: MCF7
EKVX = test system: EKVX
SF-539 = test system: SF-539
OVCAR-4 = test system: OVCAR-4
KM12 = test system: KM12
MOLT-4 = test system: MOLT-4
HOP-62 = test system: HOP-62
CCRF-CEM = test system: CCRF-CEM
SK-MEL-28 = test system: SK-MEL-28
NCI-H460 = test system: NCI-H460
SW-620 = test system: SW-620
HCC 2998 = test system: HCC 2998
HCT-15 = test system: HCT-15
A549 = test system: A549
RXF 393 = test system: RXF 393
UACC-257 = test system: UACC-257

Measured: GI50

O=C1C=CC(=O)c2ncccc21
active: HL-60 0.31 µM | SR 0.597 µM | CCRF-CEM 0.787 µM
2.08 µM: HCT-15
inactive: LOX IMVI 2.09 µM | HT-29 4.57 µM | UO-31 4.43 µM | HOP-92 1.63 µM | SN12C 5.14 µM | NCI-H522 1.89 µM | T47D 2.19 µM | SK-MEL-5 6.5 µM | K562 2.32 µM | OVCAR-5 17.5 µM | 786-0 2.71 µM | M14 3.68 µM | UACC-62 2.99 µM | NCI-H226 12.1 µM | U-251 3.18 µM | SNB-75 5.36 µM | PC-3 9.82 µM | Malme-3M 3.84 µM | COLO 205 2.58 µM | OVCAR-8 9.04 µM | MDA-MB-435 5.7 µM | RPMI-8226 2.55 µM | SF-295 7.6 µM | MDA-N 4.56 µM | SF-268 10.9 µM | Hs-578T 10.2 µM | CAKI-1 1.8 µM | ACHN 2.63 µM | MDA-MB-231 2.47 µM | SNB-19 6.17 µM | HCT-116 1.89 µM | SK-MEL-2 13.6 µM | SK-OV-3 12.2 µM | BT-549 4.45 µM | TK-10 6.28 µM | IGROV-1 5.07 µM | DU-145 7.8 µM | NCI-H23 10.3 µM | OVCAR-3 1.3 µM | A498 13.8 µM | NCI/ADR-RES 11.3 µM | MCF7 4.42 µM | EKVX 3.37 µM | SF-539 7.98 µM | OVCAR-4 5.16 µM | KM12 12.1 µM | MOLT-4 2.36 µM | HOP-62 5.11 µM | SK-MEL-28 3.46 µM | NCI-H460 3.98 µM | SW-620 1.93 µM | HCC 2998 7.26 µM | A549 10.1 µM | RXF 393 6.01 µM | UACC-257 5.05 µM

Cc1ccc(NC(Nc2ccc(C)cc2C)=C(/C=C(\Cl)[N+](=O)[O-])[N+](=O)[O-])c(C)c1
2.92 µM: HCT-15
inactive: LOX IMVI 1.64 µM | HT-29 5.43 µM | UO-31 5.9 µM | HOP-92 1.45 µM | SN12C 4.53 µM | NCI-H522 2.37 µM | T47D 1.72 µM | SK-MEL-5 5.9 µM | K562 1.46 µM | OVCAR-5 4.36 µM | 786-0 2.81 µM | M14 2.21 µM | UACC-62 3.3 µM | NCI-H226 7 µM | U-251 11.5 µM | PC-3 7.03 µM | Malme-3M 3.09 µM | COLO 205 2.18 µM | OVCAR-8 2.81 µM | SR 1.28 µM | MDA-MB-435 2.87 µM | RPMI-8226 1.55 µM | SF-295 16.6 µM | MDA-N 3.37 µM | SF-268 4.82 µM | Hs-578T 6.71 µM | CAKI-1 2.08 µM | ACHN 2.97 µM | MDA-MB-231 4.94 µM | SNB-19 12.9 µM | HCT-116 1.7 µM | SK-MEL-2 4.23 µM | SK-OV-3 5.18 µM | BT-549 3.46 µM | TK-10 4.37 µM | IGROV-1 6.04 µM | DU-145 18.5 µM | NCI-H23 5.94 µM | OVCAR-3 2.72 µM | A498 18.2 µM | NCI/ADR-RES 17.1 µM | MCF7 2.83 µM | EKVX 15.2 µM | SF-539 8.85 µM | OVCAR-4 3.69 µM | KM12 10.4 µM | MOLT-4 1.53 µM | HOP-62 17.7 µM | SK-MEL-28 2.34 µM | NCI-H460 16.6 µM | SW-620 1.91 µM | HCC 2998 23.3 µM | A549 17.3 µM | RXF 393 1.72 µM | UACC-257 4.81 µM
active: HL-60 0.592 µM | SNB-75 1.11 µM | CCRF-CEM 0.301 µM

— ChEMBL document CHEMBL1201862, “PubChem BioAssay data set” (2004)
